Reference: patent US20200306295A1, “METHOD AND DEVICE FOR ANNIHILATION OF Staphylococcus aureus” (priority 2017, published 2020)
In brackets after ≈: the same amount, converted by molar mass. Entries after “also recorded” stand apart in the source; their conditions may differ. Like-named read-outs stand apart in the source and are kept apart here.

Columns and labels:
stationary-phase MRSA [1] = test: Time-killing assay in PBS with or without pulsed laser (CFU enumeration); type: cell-based, S. aureus; conditions: for synergy of laser treatment with antibiotic against MRSA: 5 min laser plus 10 MIC antibiotic (FIG. 32)
Experimental: To quantify viable bacterial cells, CFU experiments were performed. 100 μl of sample analyte was transferred into a 96-well plate and then three or four ten-fold serial dilution achieved by transferring 20 μl bacterial culture into 180 μl 1×PBS in the next dilution row. After serial dilution, an aliquot (4 μl) from each well was spotted onto sterile TSA plates. After incubating the plates overnight (˜18 hours) at 37° C., the colonies were enumerated, and cell number was calculated in CFU/ml. For each CFU enumeration experiment, three independent replicates were applied.
Stationary-phase MRSA was prepared, washed and resuspended in 1×PBS at two-times of its original concentration. […] After laser treatment, the droplets were resuspended into 200 μl of 1×PBS (1:40 dilution) supplemented with antibiotics at different concentrations in a mini centrifuge tube (89166-278, VWR international). For example, daptomycin was added into MRSA solution after laser treatment at desired concentration of 0×MIC, 5×MIC, 10×MIC, 30×MIC, or 100×MIC supplemented with 50 μg/ml CaCl2). Corresponding groups without laser treatment were also conducted for comparison. These tubes were incubated within an orbital incubator (37° C., 200 rpm) for different incubation time. At each specific time point, 40 μl of aliquot from each group was transferred to a 96-well plate for follow-up CFU enumerating assay. In the case of tobramycin, additional antibiotic washing by 1×PBS was performed before the CFU experiment to avoid antibiotic interference. For time-killing assay in fresh human whole blood, similar protocol was followed as above, except that 1×PBS was replaced by fresh human whole blood and the initial stationary-phase MRSA solution was diluted by ten times with a concentration of ˜10^7 CFU/ml.

MRSA = test: microbe, parasite or virus in culture; type: cell-based, S. aureus; conditions: for resistance development with laser treatment: 48-day serial passage, sub-MIC antibiotic with 10 min laser; for MIC: Staphylococcus aureus, MRSA
Experimental: To understand whether laser treatment could cause genotypic or phenotypic change in MRSA, and whether STX photolysis could reduce the resistance development for conventional antibiotics, a serial passage study for each treatment scenario was conducted. The initial generation (Day 1) used in this study was stationary-phase MRSA. The sample was prepared, washed and resuspended in 1×PBS at its original concentration. An aliquot (5 μl) of the MRSA suspension was transferred onto a glass cover slide as a droplet of ˜5 mm in diameter with or without 10 min laser treatment (1 cm diameter illumination area, 120 mW). The droplets were then collected and resuspended into 5 ml of TSB medium (1:1000 dilution) with an estimated cell concentration of 10^5 CFU/ml. To study resistance development or selection induced by laser treatment alone, three groups were included: a group without laser treatment (SPO), a group with laser treatment (SPL1), and another independent group with laser treatment as a duplicate (SPL2). To study resistance development induced by antibiotic treatment alone and laser plus antibiotic treatment, three groups were included for each antibiotic: antibiotic alone-treated group (SPA0), laser plus antibiotic-treated group (SPLA1), and another laser plus antibiotic-treated group as another independent serial passage (SPLA2). For SPO, SPL1, and SPL2, 200 μl of bacterial suspension was directly transferred to each well of a 96-well plate, with three replicates conducted for each group. For SPA0, SPLA1, and SPLA2, 200 μl of bacterial suspension was transferred into the first dilution row of a 96-well plate with supplemented antibiotics at a desired starting concentration, whereas 100 μl of bacterial suspension was transferred to the rest dilution rows. […] Three replicates were applied for each group. These well plates were incubated in a shaker at 37° C. and 200 rpm for 18 hours followed by OD600 measurement by a plate reader. After MICs recording for each group, the well plates were continuously incubated in the shaker for 3 days in total. On Day 4, 200 μl of bacterial sample from each group was collected, washed, and resuspended in 1×PBS at its original concentration used as new inoculum for the next passage following the same protocol as described above. Samples for SPA0, SPLA1, and SPLA2 groups were collected from wells supplemented with sub-MIC antibiotic. Samples for SPO, SPL1, and SPL2 groups were also collected from the well plates. […] Serial passage for all groups were performed for […] with 16 generations in total. Raman spectroscopy was then applied to monitor STX expression level in groups of interest after the entire serial passage experiment. The protocol is detailed as below: 100 μl of ˜400 μl stored bacterial culture was collected, spun down with the supernatant being removed, then resuspended into 5 μl 1×PBS as high-concentration bacterial solution (20 times concentrated). An aliquot (1 μl) was transferred and then sandwiched between two glass cover slides for STX quantification by resonance Raman spectroscopy.

[2] = system: MRSA NRS384 (MRSA USA 300); test: MIC by standard broth-dilution method; type: cell-based, S. aureus
Text: For each measurement, three independent replicates were applied.

stationary-phase MRSA [3] = test: Gentamicin-Texas red intracellular uptake assay; type: cell-based, S. aureus; conditions: gentamicin conjugated with Texas red, confocal fluorescence
Experimental: To study laser-mediated intracellular uptake of gentamicin (a representative of aminoglycoside), gentamicin was conjugated with a fluorescent dye, Texas-red, to form gentamicin-Texas red. Briefly, 10 mg of gentamicin was dissolved into 1 ml of 0.1 M sodium bicarbonate buffer (58761-500ML, Sigma Aldrich). 10 mg/ml of Texas red-X succinimidyl ester (T6134, Thermo Fisher Scientific) was added to the gentamicin solution slowly drop by drop. Then the mixed solution was stirred at room temperature for 1 hour. Gentamicin-Texas red was purified through sufficient dialysis against 0.1 M sodium bicarbonate buffer in a dialysis sack (Slide-A-Lyzer G2 Dialysis Cassettes, 2K MWCo, 15 mL, 87719, Thermao Fisher Scientific), and harvested through lyophilization (Labconco). […] After treatment, bacterial droplet was collected into 985 μl of sterile 1×PBS, and then add 10 μl of 1 mg/ml Gentamicin-Texas red. Mixed solution was incubated at 37° C. for 30 min with a shaking speed of 200 rpm. After incubation, MRSA pellets were harvested through washing with sterile 1×PBS twice and then fixed with 10% formalin. […] Quantitative analysis of fluorescence emission intensity from individual MRSA cells was conducted and allocated among groups with different laser treatment time.

stationary-phase MRSA [4] = type: cell-based, S. aureus; conditions: for fold reduction of lowest concentration completely inhibiting MRSA growth within 18 hours, with laser treatment: 16 min laser stated for tetracycline, 2-fold or larger is synergy (FICI)
Experimental: To monitor the response of bacteria to laser treatment alone, antibiotic treatment alone, or their combinations, bacterial growth was continuously monitored overnight (18 hours with an interval of 30 min at 37° C.) by measuring optical density at 600 nm (OD600). Depending on the specific assay applied, the bacterial cells were suspended in 100 or 200 μl TSB medium under different treatment schemes (antibiotic alone, laser treatment alone, antibiotic plus laser treatment) with a final concentration of ˜10^5 CFU/ml. Bacterial growth was defined as OD600≥0.1.
Stationary-phase bacterial cells was washed and resuspended in 1×PBS at its original concentration. […] The treated droplet was collected and resuspended into 5 ml TSB (1:1000 dilution) for each group. Corresponding groups without laser treatment were also conducted for comparison. The bacterial suspensions were transferred to a 96-well plate with antibiotics supplemented into with the first row of the 96-well plate for eight two-fold serial dilution starting at a desired antibiotic concentration (e.g. ofloxacin: 2 μg/ml). After serial dilution, bacterial growth within the same well plate was monitored by a plate reader for 18 hours (OD600, 37° C.). The checkerboard assay was used for groups with laser treatment alone or laser plus antibiotic treatment. Two independent experiments of checkerboard assay were performed for each antibiotic with or without laser treatment. Based on the readout of OD600, a heat map was created to evaluate the antibiotic potentiation or synergistic effect enabled by STX photolysis.
Based on the checkerboard results, the fractional inhibitory concentration index (FICI), a synergy evaluation method between two antibiotics, was calculated as below: FICI=MIC of antibiotic A in combination/MIC of antibiotic A alone+MIC of antibiotic B in combination/MIC of antibiotic B alone. The interaction of the two antibiotics was defined as below: synergy if FICI≤0.5, no interaction if 0.5<FICI≤4, antagonism if FICI>4^46. […] Considering this reason, the synergy calculation was simplified as below: FICI=MIC of antibiotic A in combination with laser treatment/MIC of antibiotic A alone with synergy defined by FICI≤0.5.

[5] = read-out: MIC after 48-day serial passage, sub-MIC antibiotic alone

CO/N=C(\C(=O)N[C@@H]1C(=O)N2C(C(=O)O)=C(COC(C)=O)CS[C@H]12)c1csc(N)n1 [cefotaxime]
synergy of laser treatment with antibiotic against MRSA (stationary-phase MRSA [1]): very obvious synergy | synergy of laser treatment with antibiotic against MRSA (stationary-phase MRSA [1]; listed as cetotaxine): synergy

gentamicin
resistance development with laser treatment (MRSA): Delayed resistance development | MIC ([2]; MRSA NRS384 (MRSA USA 300), N = 3): 8 µg/mL | synergy of laser treatment with antibiotic against MRSA (stationary-phase MRSA [1]): synergy; also recorded: very obvious synergy | MRSA reduction (stationary-phase MRSA [1]; pulsed laser treatment combined with antibiotic at 10 MIC (FIG. 32)): more than 2 log | intracellular uptake with laser treatment vs untreated (stationary-phase MRSA [3]): significantly more

CC[C@H]1OC(=O)[C@H](C)[C@@H](O[C@H]2C[C@@](C)(OC)[C@@H](O)[C@H](C)O2)[C@H](C)[C@@H](O[C@@H]2O[C@H](C)C[C@H](N(C)C)[C@H]2O)[C@](C)(O)C[C@@H](C)C(=O)[C@H](C)[C@@H](O)[C@]1(C)O [Erythromycin]
MIC ([2]; Staphylococcus aureus): 64 µg/mL (≈ 87.2 µM)

NC[C@H]1O[C@H](O[C@H]2[C@H](O)[C@@H](O[C@H]3O[C@H](CO)[C@@H](O)[C@H](N)[C@H]3O)[C@H](N)C[C@@H]2N)[C@H](N)C[C@@H]1O [tobramycin]
resistance development with laser treatment (MRSA): resistance inhibition

CC1COc2c(N3CCN(C)CC3)c(F)cc3c(=O)c(C(=O)O)cn1c23 (stereo not drawn) [Ofloxacin, ofloxacin]
fold reduction of lowest concentration completely inhibiting MRSA growth within 18 hours, with laser treatment (stationary-phase MRSA [4]): 2 fold | MIC (MRSA; [5]): 128 µg/mL (≈ 354 µM) | MIC ([2]; Staphylococcus aureus): 0.5 µg/mL (≈ 1.38 µM)

CN(C/C=C/c1ccccc1)Cc1cccc2ccccc12 [naftifine]
second order bleaching constant τ2 (STX in MRSA; naftifine-treated MRSA, τ1=∞, wild-type MRSA 0.16±0.01 s): 0.39 ± 0.07 s | τ2 of naftifine-treated MRSA relative to wild-type MRSA (STX in MRSA; times longer than wild-type MRSA): 2.5 times

CC(=O)NC[C@H]1CN(c2ccc(N3CCOCC3)c(F)c2)C(=O)O1 [linezolid]
fold reduction of lowest concentration completely inhibiting MRSA growth within 18 hours, with laser treatment (stationary-phase MRSA [4]): 8 fold | resistance development with laser treatment (MRSA): resistance inhibition

O=C(O)c1cn(C2CC2)c2cc(N3CCNCC3)c(F)cc2c1=O [ciprofloxacin]
resistance development with laser treatment (MRSA): no resistance | MIC (MRSA; [5]): 128 µg/mL (≈ 386 µM) | MIC (MRSA; read-out: MIC over/after 48-day serial passage, sub-MIC antibiotic plus 10 min laser treatment): ≤ 2 µg/mL | synergy of laser treatment with antibiotic against MRSA (stationary-phase MRSA [1]): synergy; also recorded: very obvious synergy

ramoplanin
resistance development with laser treatment (MRSA): decreased resistance development is not shown

Cc1onc(-c2ccccc2)c1C(=O)N[C@@H]1C(=O)N2[C@@H]1SC(C)(C)[C@@H]2C(=O)O [Oxacillin, oxacillin]
antibiotic concentration re-sensitized by laser treatment (stationary-phase MRSA [4]; laser treatment plus oxacillin): 1 µg/mL | MIC ([2]; Staphylococcus aureus, MRSA NRS384 (MRSA USA 300), N = 3, read-out: MIC): 8 µg/mL (≈ 19.9 µM) | synergy of laser treatment with antibiotic against MRSA (stationary-phase MRSA [1]): synergy; also recorded: very obvious synergy
